# Assay results published in the supplement of paper PMC10307832.
# Tests used:
# Experiment in all cases: relative viability (nuclei count vs DMSO), 5 days (fraction); higher = more cells survive
# [1] = compound: C1COCCN1C2=NC(=NC3=C2OC4=C3C=CC=N4)C5=CC(=CC=C5)NC(=O)C6=CN=C(C=C6)N + CC(=O)Nc1cccc(-n2c(=O)n(C3CC3)c(=O)c3c(Nc4ccc(I)cc4F)n(C)c(=O)c(C)c32)c1 [Trametinib] (partner 0.02 µM)
# In short: (§1)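 Lung cancer cell lines, seeded in 1536-well plates, were treated the following day by pin tool with a single drug or with five library-drug doses (not always all listed) in √10 steps on top of a fixed anchor-drug dose. Cells were fixed and nuclei stained in one step after 5 days, and nuclei were counted. Relative viability is the nuclei count for treated wells divided by that for vehicle wells, reported as medians of duplicate plates.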
# [2] = compound: C1COCCN1C2=NC(=NC3=C2OC4=C3C=CC=N4)C5=CC(=CC=C5)NC(=O)C6=CN=C(C=C6)N + COc1cccc2cc(-c3nc([C@H]4CC[C@H](C(=O)O)CC4)n4ncnc(N)c34)[nH]c12 [OSI-027] (partner 0.5 µM)
# In short: as §1
# Entinostat + Linsitinib = compound: Nc1ccccc1NC(=O)c1ccc(CNC(=O)OCc2cccnc2)cc1 [Entinostat] + C[C@]1(O)C[C@@H](c2nc(-c3ccc4ccc(-c5ccccc5)nc4c3)c3c(N)nccn32)C1 [Linsitinib] (partner 1 µM)
# In short: as §1
# Entinostat + Tozasertib = compound: Nc1ccccc1NC(=O)c1ccc(CNC(=O)OCc2cccnc2)cc1 [Entinostat] + Cc1cc(Nc2cc(N3CCN(C)CC3)nc(Sc3ccc(NC(=O)C4CC4)cc3)n2)n[nH]1 [Tozasertib] (partner 0.1 µM)
# In short: as §1
Cell Line,relative viability ([1]; first compound 0.02 µM),relative viability ([1]; first compound 0.06325 µM),relative viability ([1]; first compound 0.2 µM),relative viability ([1]; first compound 0.6325 µM),relative viability ([1]; first compound 2 µM),relative viability ([2]; first compound 0.02 µM),relative viability ([2]; first compound 0.06325 µM),relative viability ([2]; first compound 0.2 µM),relative viability ([2]; first compound 0.6325 µM),relative viability ([2]; first compound 2 µM),relative viability (Entinostat + Linsitinib; first compound 0.02 µM),relative viability (Entinostat + Linsitinib; first compound 0.06325 µM),relative viability (Entinostat + Linsitinib; first compound 0.2 µM),relative viability (Entinostat + Linsitinib; first compound 0.6325 µM),relative viability (Entinostat + Linsitinib; first compound 2 µM),relative viability (Entinostat + Tozasertib; first compound 0.02 µM),relative viability (Entinostat + Tozasertib; first compound 0.06325 µM),relative viability (Entinostat + Tozasertib; first compound 0.2 µM),relative viability (Entinostat + Tozasertib; first compound 0.6325 µM),relative viability (Entinostat + Tozasertib; first compound 2 µM)
LXF-289,0.676,0.769,0.671,0.67,0.462,0.814,0.884,0.768,0.748,0.351,0.982,0.985,0.917,0.785,0.632,0.203,0.172,0.204,0.17,0.145
NCI-H23,0.337,0.322,0.359,0.409,0.197,0.605,,0.435,0.351,0.398,0.723,0.567,0.782,0.531,0.399,0.364,0.264,0.292,0.193,0.121
NCI-H322M,0.449,0.519,0.521,0.412,0.475,0.526,0.523,0.544,0.49,0.416,0.885,1.04,0.883,0.89,0.65,0.505,0.555,0.519,0.461,0.448
NCI-H358,0.132,0.138,0.122,0.127,0.244,,0.832,0.702,0.601,0.443,0.699,0.905,0.934,0.503,0.238,0.0897,0.0965,0.0816,0.0915,0.0853
NCI-H441,0.453,0.423,0.29,0.337,0.312,0.588,0.511,0.507,0.58,0.327,0.483,0.494,0.524,0.262,0.13,0.593,0.483,0.425,0.275,0.224
NCI-H460,0.166,0.263,0.142,0.133,0.0197,0.578,0.639,0.505,0.237,0.185,0.664,0.685,0.378,0.0221,0.0142,0.395,0.0956,0.0498,0.0451,0.0275
NCI-H520,0.493,0.806,0.758,0.528,0.494,0.263,0.257,0.233,0.263,0.211,1.03,1.05,1.09,0.897,0.412,0.47,0.441,0.38,0.331,0.325
NCI-H596,0.772,0.87,0.735,0.724,0.593,0.674,0.735,0.65,0.526,0.373,1.08,1.17,0.958,0.9,0.799,0.76,0.93,1.14,0.621,0.503
